Earlier results as cited in US20180064655A1, “Hydroxynorketamine Transdermal Patch” (priority 2016, published 2018).

Key:
[1] = in vivo
[2] = metabolite of ketamine
[3] = in vivo; remark: listed apart in the source
[4] = following a single administration

Structure (SMILES)	ketamine-related side-effects [1]	antidepressant effect [2]	onset of antidepressant effects [4]	persistence of antidepressant effects [4]	efficacy as an antidepressant (in vivo)	side effects limiting clinical use [3]
N[C@@]1(c2ccccc2Cl)CCC[C@@H](O)C1=O [(2R,6R)-HNK, (2R,6R)-hydroxynorketamine]	lacks ketamine-related side-effects	responsible for the antidepressant effect observed with ketamine treatment	–	–	–	–
CNC1(c2ccccc2Cl)CCCCC1=O (stereo not drawn) [Ketamine]	–	–	within hours	approximately one	rapid and robust efficacy as an antidepressant	abuse potential and sensory-dissociation side effects
